Here are results for one molecule from ChEMBL document CHEMBL5634146, “Discovery of benzimidazole-indazole derivatives as potent FLT3-tyrosine kinase domain mutant kinase inhibitors for acute myeloid leukemia” (Eur J Med Chem, 2023).

Structures are written as SMILES.

Data set [1] is described as follows: in vitro. As to conditions: mouse, liver S9 fraction.
Data set [2] can be described thus: in vitro. The conditions noted are these: human, liver S9 fraction.

`N[C@H]1CC[C@H](NC(=O)c2ccc3[nH]nc(-c4nc5ccc(N6CCOCC6)cc5[nH]4)c3c2)C1`: the amount remaining at 0.5 h in data set [1] and in data set [2] was 61% throughout.
